Results taken from US10946017B2, “Tank-binding kinase-1 PROTACs and associated methods of use” (Arvinas Operations, Inc., priority 2015, dated 2021).
“Also recorded” adds a separate entry of the source. Where two headings read alike, the source gives them in different places.

Experiments:
[1] = target: T1, TBK1 (Homo sapiens (Human), UniProt Q9UHD2); assay: In vitro TBK1 degradation assay, Panc02.13 cells (compounds 3-33), immunoblot; format: cell-based; conditions: for DC50: read-out: DC50 (concentration at which 50% degradation is observed)
T1 sequence (Q9UHD2 whole entry): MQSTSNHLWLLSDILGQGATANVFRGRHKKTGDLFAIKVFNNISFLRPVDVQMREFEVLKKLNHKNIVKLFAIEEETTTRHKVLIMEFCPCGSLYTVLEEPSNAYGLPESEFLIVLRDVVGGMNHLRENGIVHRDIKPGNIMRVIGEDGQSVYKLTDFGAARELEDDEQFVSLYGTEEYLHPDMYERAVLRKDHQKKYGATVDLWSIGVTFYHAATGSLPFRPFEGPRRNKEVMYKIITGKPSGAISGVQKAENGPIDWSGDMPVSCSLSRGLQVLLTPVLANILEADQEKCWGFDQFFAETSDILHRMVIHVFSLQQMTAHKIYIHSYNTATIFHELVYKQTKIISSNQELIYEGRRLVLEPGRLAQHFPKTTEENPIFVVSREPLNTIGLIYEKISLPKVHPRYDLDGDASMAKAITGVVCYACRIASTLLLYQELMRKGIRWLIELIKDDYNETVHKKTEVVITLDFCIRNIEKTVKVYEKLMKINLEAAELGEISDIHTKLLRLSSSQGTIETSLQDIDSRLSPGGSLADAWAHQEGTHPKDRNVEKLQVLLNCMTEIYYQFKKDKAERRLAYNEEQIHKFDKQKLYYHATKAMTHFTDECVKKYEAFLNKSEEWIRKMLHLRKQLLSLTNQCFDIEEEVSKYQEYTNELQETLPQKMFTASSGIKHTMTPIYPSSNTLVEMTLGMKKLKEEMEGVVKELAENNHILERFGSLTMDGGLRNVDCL
Protocol: (§1) In vitro degradation assay protocol for compounds 3-33: Panc02.13 cells were purchased from ATCC and cultured in RPMI-1640 (Gibco), supplemented with 15% FBS (ATCC) and 10 Units/mL human recombinant insulin (Gibco). PROTAC treatments were carried out in 12-well plates for 16 h. TLR3 agonist Poly I:C (Invivogen; tlr1-pic) was added for the final 3 h. Cells were harvested, and lysed in RIPA buffer (50 mM Tris pH8, 150 mM NaCl, 1% Tx-100, 0.1% SDS, 0.5% Sodium Deoxycholate) supplemented with protease and phosphatase inhibitors. Lysates were clarified at 16,000 g for 10 minutes, and supernatants were separated by SDS-PAGE. Immunoblotting was performed using standard protocols. The antibodies used were TBK1 (Cell Signaling#3504), pIRF3 (abcam#ab76493), and GAPDH (Cell Signaling#5174).

[2] = target: Von Hippel-Lindau (VHL) E3 ligase (Homo sapiens (Human), UniProt P40337); assay: VHL binding, FP assay; conditions: affinity of the VHL ligand component with side chain R2
Chain of Von Hippel-Lindau (VHL) E3 ligase (P40337 whole entry, looked up): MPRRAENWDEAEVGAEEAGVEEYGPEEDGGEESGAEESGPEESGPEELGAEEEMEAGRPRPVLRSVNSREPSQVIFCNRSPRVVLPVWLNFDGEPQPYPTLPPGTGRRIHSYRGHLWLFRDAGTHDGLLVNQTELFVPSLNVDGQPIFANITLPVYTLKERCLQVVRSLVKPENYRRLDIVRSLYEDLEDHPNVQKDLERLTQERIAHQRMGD
Chain of Von Hippel-Lindau (VHL) E3 ligase (Q15370 whole entry partner, looked up): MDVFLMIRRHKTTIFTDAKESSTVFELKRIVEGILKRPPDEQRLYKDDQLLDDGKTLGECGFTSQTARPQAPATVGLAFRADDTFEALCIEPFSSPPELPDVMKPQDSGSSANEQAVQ
Chain of Von Hippel-Lindau (VHL) E3 ligase (Q15369 whole entry partner, looked up): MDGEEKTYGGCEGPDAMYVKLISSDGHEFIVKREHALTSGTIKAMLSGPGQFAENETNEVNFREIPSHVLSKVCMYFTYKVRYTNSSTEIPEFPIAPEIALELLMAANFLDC

[3] = target: T1, TBK1; assay: TBK1 binding affinity (Kd)
[4] = test system: pIRF3; assay: Inhibition of TBK1 downstream marker pIRF3 in cells; format: cell-based
Protocol: as §1

[5] = test system: KRAS mutant cell lines H23, A549 and H1792, and KRAS wild type cell line H2110; assay: Proliferation of KRAS mutant and wild type cell lines; format: cell-based; conditions: 72 hour treatment
[6] = target: T2, IKKε (Homo sapiens (Human), UniProt Q14164); assay: IKKε binding affinity (Kd)
T2 sequence (Q14164 whole entry): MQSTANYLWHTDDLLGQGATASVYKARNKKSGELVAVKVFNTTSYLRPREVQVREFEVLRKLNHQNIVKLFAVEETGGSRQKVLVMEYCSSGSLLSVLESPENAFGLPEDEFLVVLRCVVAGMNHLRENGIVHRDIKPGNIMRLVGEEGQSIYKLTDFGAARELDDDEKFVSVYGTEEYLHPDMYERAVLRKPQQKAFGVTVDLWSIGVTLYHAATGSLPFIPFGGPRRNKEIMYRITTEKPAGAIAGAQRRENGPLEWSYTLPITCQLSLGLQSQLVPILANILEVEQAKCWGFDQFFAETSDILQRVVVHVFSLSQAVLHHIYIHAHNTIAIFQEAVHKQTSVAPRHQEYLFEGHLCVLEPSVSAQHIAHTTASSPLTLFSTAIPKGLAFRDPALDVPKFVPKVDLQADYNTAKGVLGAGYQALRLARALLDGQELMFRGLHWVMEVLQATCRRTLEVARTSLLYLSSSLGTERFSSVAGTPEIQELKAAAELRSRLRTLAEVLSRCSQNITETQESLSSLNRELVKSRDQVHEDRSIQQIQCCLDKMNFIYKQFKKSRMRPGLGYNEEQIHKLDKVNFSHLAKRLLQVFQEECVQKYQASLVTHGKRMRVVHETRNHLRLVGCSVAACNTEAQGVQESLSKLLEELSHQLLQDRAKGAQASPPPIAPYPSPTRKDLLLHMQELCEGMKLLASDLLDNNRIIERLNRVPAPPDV

[7] = target: T2, IKKε; assay: IKKε degradation in cells; format: cell-based
[8] = target: T1, TBK1; assay: TBK1 degradation in KRAS mutant and wild type cell lines; format: cell-based; conditions: 72 hour treatment; H23, A549, H1792 (KRAS mutant), H2110 (KRAS wild type)
[9] = TBK1 degradation, Panc02.13 cells, 16 h, mean of ≥ 2 determinations

For `Cc1ncsc1-c1ccc(CNC(=O)[C@@H]2C[C@@H](O)CN2C(=O)CNC(=O)COCCCOCCCCOCCCOc2ccc(Nc3ncc(Br)c(NCCCN(C)C(=O)C4CCC4)n3)cc2)cc1` [Compound 29], the “Dmax (maximal degradation observed)” value [1, 9] was 0%, the DC50 [1, 9] was greater than 1000 nM and the IC50 [2] was 106000 nM.

`Cc1ncsc1-c1ccc(CNC(=O)[C@@H]2C[C@@H](O)CN2C(=O)[C@@H](NC(=O)COCCCOCCCCOCCCOc2ccc(Nc3ncc(C4CCC4)c(NCCCN(C)C(=O)C4CCC4)n3)cc2)C(C)(C)C)cc1` [Compound 22] was tested, and the “Dmax (maximal degradation observed)” value [1, 9] was 70%, the DC50 [1, 9] was 544 nM and the Kd [3] was 1040 ± 165 nM. It also gave a Kd ([3]; rounded value) of 1000 nM.

With `Cc1ncsc1-c1ccc(CNC(=O)[C@@H]2C[C@@H](O)CN2C(=O)[C@@H](NC(=O)COCCCOCCCCOCCCOc2ccc(Nc3ncc(Br)c(NCCCN(C)C(=O)C4CCC4)n3)cc2)C(C)C)cc1` [Compound 33] the “Dmax (maximal degradation observed)” value [1, 9] was 88%, the DC50 [1, 9] was 44 nM and the IC50 [2] was 1450 nM.

For `Cc1ncsc1-c1ccc(CNC(=O)[C@@H]2C[C@@H](O)CN2C(=O)[C@@H](NC(=O)COCCCOCCCCOCCCOc2ccc(Nc3ncc(Br)c(NCCCN(C)C(=O)C4CCC4)n3)cc2)C(C)(C)C)cc1` [Compound 11, (2S,4R)-1-((S)-18-(4-((5-Bromo-4-((3-(N-methylcyclobutanecarboxamido)-propyl)amino)pyrimidin-2-yl)amino)phenoxy)-2-(tert-butyl)-4-oxo-6,10,15-trioxa-3-azaoctadecan-1-oyl)-4-hydroxy-N-(4-(4-methylthiazol-5-yl)benzyl)pyrrolidine-2-carboxamide], the DC50 [1, 9] was 12 nM, the Dmax ([1]; TBK1 degradation, Panc02.13 cells, 16 h, mean of ≥ 2 determinations, read-out: Dmax (maximal degradation observed)) was 96% and the “TBK1 degradation with excess VHL ligand 2 added” value ([1]; excess VHL ligand 2 as competitor) was “abrogated TBK1's degradation”. For the same compound, the “TBK1 degradation (in words)” value ([1]; listed as PROTAC 11) was “Maximal efficacy; also recorded: effects degradation of TBK1”, the “TBK1 degradation after pre-treatment with proteasome inhibitor carfilzomib” value ([1]; pre-treatment with carfilzomib, listed as PROTAC 11) was “markedly reduced the extent of TBK1 degradation; also recorded: abrogated” and the Kd [3] was 4.6 ± 1.1 nM. For the same compound, the IC50 [2] was 800 nM, the “intracellular TBK1 binding indicated by inhibition of pIRF3” value [4] was “competent intracellular TBK1 binding” and the “effect on proliferation of KRAS mutant versus wild type cells” value [5] was “no differential effect on the proliferation”. The Kd [6] was 70 nM, the IKKε degradation [7] was “negligible degradation” and the “degradation selectivity TBK1 over IKKε” value [7] was “selectively degrades TBK1 over IKKε”. For the same compound, the “TBK1 degradation in KRAS mutant and wild type cells” value [8] was “near complete degradation of TBK1”.

With `CC[C@H](NC(=O)COCCCOCCCCOCCCOc1ccc(Nc2ncc(Br)c(NCCCN(C)C(=O)C3CCC3)n2)cc1)C(=O)N1C[C@H](O)C[C@H]1C(=O)NCc1ccc(-c2scnc2C)cc1` [Compound 31] the “Dmax (maximal degradation observed)” value [1, 9] was 71%, the “Dmax (maximal degradation observed)” value ([1]; TBK1 degradation, Panc02.13 cells, 16 h, mean of ≥ 2 determinations, listed as PROTAC 31) was greater than 70% and the DC50 [1, 9] was 864 nM. For the same compound, the IC50 [2] was 70400 nM.
